Read-outs that look alike come from different tables or passages of the source.
Columns and labels:
Erysiphae graminis = assay: Fungicidal activity against Barley Powdery Mildew (BPM) disease; type: in vivo; details: for BPM (Fungicidal Activities, C.V.): Barley Powdery Mildew
Rhizoctonia solani AG-1 = assay: Fungicidal activity against Rice Sheath Blight (RSB) disease; details: for RSB (Fungicidal Activities, C.V.): Rice Sheath Blight
Phytophthora infestans = type: in vivo; details: for TLB (Fungicidal Activities, C.V.): Tomato Late Blight
Botrytis cinerae = assay: Fungicidal activity against Cucumber Gray Mold Rot (CGM) disease; type: in vivo; details: for CGM (Fungicidal Activities, C.V.): Cucumber Gray Mold Rot, concentration 50 ppm
Description: Botrytis cinerae, which was isolated from cucumber infected thereby, was inoculated on a PDA agar medium and cultured under a 12L/12D cycle at 25° C. for 15 days to form spore. The spores were scraped, filtered through a gauze and then suspended in potato dextrose liquid medium at a concentration of 1×10^6 spore/ml. The spore suspension was sprayed on a cucumber plant having one leaf. The cucumber plant was held in a humidified room at 20° C. for 3 days. L.A. on a leaf was measured to calculate an C.V.

[1] = test system: Pyricularia oryzae Carvara KA301; type: in vivo; details: for RCV (Fungicidal Activities, C.V.): Rice Blast
Puccinia recondita = assay: Fungicidal activity against Wheat Leaf Rust (WLR) disease; type: in vivo; details: for WLR (Fungicidal Activities, C.V.): Wheat Leaf Rust

SMILES	BPM (Fungicidal Activities, C.V.) (Erysiphae graminis; concentration 2 ppm)	BPM (Fungicidal Activities, C.V.) (Erysiphae graminis; concentration 10 ppm)	BPM (Fungicidal Activities, C.V.) (Erysiphae graminis; concentration 50 ppm)	RSB (Fungicidal Activities, C.V.) (Rhizoctonia solani AG-1; concentration 2 ppm)	RSB (Fungicidal Activities, C.V.) (Rhizoctonia solani AG-1; concentration 50 ppm)	TLB (Fungicidal Activities, C.V.) (Phytophthora infestans; concentration 50 ppm)	CGM (Fungicidal Activities, C.V.) (Botrytis cinerae)	RCV (Fungicidal Activities, C.V.) ([1]; concentration 2 ppm)	RCV (Fungicidal Activities, C.V.) ([1]; concentration 10 ppm)	RCV (Fungicidal Activities, C.V.) ([1]; concentration 50 ppm)	WLR (Fungicidal Activities, C.V.) (Puccinia recondita; concentration 2 ppm)	WLR (Fungicidal Activities, C.V.) (Puccinia recondita; concentration 10 ppm)	WLR (Fungicidal Activities, C.V.) (Puccinia recondita; concentration 50 ppm)	Fungicidal Activities BPM (C.V.) (Erysiphae graminis; 2 ppm)	Fungicidal Activities BPM (C.V.) (Erysiphae graminis; 50 ppm)	Fungicidal Activities RSB (C.V.) (Rhizoctonia solani AG-1; 2 ppm)	Fungicidal Activities RSB (C.V.) (Rhizoctonia solani AG-1; 50 ppm)	Fungicidal Activities TLB (C.V.) (Phytophthora infestans; 50 ppm)	Fungicidal Activities RCV (C.V.) ([1]; 2 ppm)	Fungicidal Activities WLR (C.V.) (Puccinia recondita; 2 ppm)	further results
CO/N=C(/C(=O)OC)c1ccccc1CON=C(C)c1cccc(OC(F)=Cc2ccccc2)c1 [Compound 64]	100%	100%	100%	45%	85%	95%	75%	100%	100%	100%	99%	100%	100%								RSB (Fungicidal Activities, C.V.) (Rhizoctonia solani AG-1; concentration 10 ppm): 65%; TLB (Fungicidal Activities, C.V.) (Phytophthora infestans; concentration 2 ppm): 87%; TLB (Fungicidal Activities, C.V.) (Phytophthora infestans; concentration 10 ppm): 90%
CON=C(C(=O)OC)c1ccccc1CON=Cc1cccc(OC(F)=Cc2ccc(Cl)cc2)c1 [Compound 28]	86%		95%	0%	50%	38%	9%	66%		99%	97%		100%								TLB (Fungicidal Activities, C.V.) (Phytophthora infestans; concentration 2 ppm): 50%
COC=C(C(=O)OC)c1ccccc1CON=C(C)c1cccc(OC(F)=C(c2ccc(Cl)cc2)C(F)(F)F)c1 [Compound 163]														94%	100%	40%	92%	12%	58%	86%	Fungicidal Activities BPM (C.V.) (Erysiphae graminis; 10 ppm): 100%; Fungicidal Activities RSB (C.V.) (Rhizoctonia solani AG-1; 10 ppm): 40%; Fungicidal Activities CGM (C.V.) (Botrytis cinerae; 50 ppm): 51%; Fungicidal Activities RCV (C.V.) ([1]; 10 ppm): 86%; Fungicidal Activities RCV (C.V.) ([1]; 50 ppm): 90%; Fungicidal Activities WLR (C.V.) (Puccinia recondita; 10 ppm): 98%; Fungicidal Activities WLR (C.V.) (Puccinia recondita; 50 ppm): 100%
CON=C(C(=O)OC)c1ccccc1CON=C(c1cccc(OC(F)=Cc2ccccc2)c1)C(F)(F)F [Compound 102]	97%	100%	100%		50%	0%	23%	71%	86%	99%	94%	96%	99%								
COC=C(C(=O)OC)c1ccccc1CON=C(C)c1cccc(OC(F)=C(c2cccc(F)c2)C(F)(F)F)c1 [Compound 159]	99%	100%	100%		65%	20%	52%	25%	91%	96%	94%	100%	100%								
CON=C(C(=O)OC)c1ccccc1CON=C(C)c1cccc(OC(F)=Cc2cc(C)cc(C)c2)c1 [Compound 68]	100%	100%	100%	30%	100%	20%	56%	100%	100%	100%	99%	100%	100%								RSB (Fungicidal Activities, C.V.) (Rhizoctonia solani AG-1; concentration 10 ppm): 70%
CON=C(C(=O)OC)c1ccccc1CON=C(C)c1cccc(OC(F)=C(c2cccc(C)c2)C(F)(F)F)c1 [Compound 174]														99%	100%	25%	60%	0%	86%	90%	Fungicidal Activities CGM (C.V.) (Botrytis cinerae; 50 ppm): 0%; Fungicidal Activities RCV (C.V.) ([1]; 50 ppm): 96%; Fungicidal Activities WLR (C.V.) (Puccinia recondita; 50 ppm): 100%
CON=C(C(=O)OC)c1ccccc1CON=C(C)c1cccc(OC(F)=C(c2ccc(C)cc2)C(F)(F)F)c1 [Compound 175]														83%	100%	10%	65%	0%	76%	86%	Fungicidal Activities CGM (C.V.) (Botrytis cinerae; 50 ppm): 12%; Fungicidal Activities RCV (C.V.) ([1]; 50 ppm): 96%; Fungicidal Activities WLR (C.V.) (Puccinia recondita; 50 ppm): 100%
COC=C(C(=O)OC)c1ccccc1CON=C(C)c1cccc(OC(F)=C(c2ccccc2)C(F)(F)F)c1 [Compound 150]	100%	100%	100%	55%	92%	50%	44%	83%	100%	100%	95%	100%	100%								RSB (Fungicidal Activities, C.V.) (Rhizoctonia solani AG-1; concentration 10 ppm): 65%
CON=C(C(=O)OC)c1ccccc1CON=C(C)c1cccc(OC(F)=C(c2cccc(C(F)(F)F)c2)C(F)(F)F)c1 [Compound 188]														91%	100%	0%	55%	40%	76%	66%	Fungicidal Activities TLB (C.V.) (Phytophthora infestans; 2 ppm): 0%; Fungicidal Activities CGM (C.V.) (Botrytis cinerae; 50 ppm): 0%; Fungicidal Activities RCV (C.V.) ([1]; 50 ppm): 71%; Fungicidal Activities WLR (C.V.) (Puccinia recondita; 50 ppm): 95%
COC=C(C(=O)OC)c1ccccc1CON=C(C)c1cccc(OC(F)=C(c2ccc(F)cc2)C(F)(F)F)c1 [Compound 160]		100%	100%		70%	92%	36%		100%	100%		100%	100%	99%					86%	99%	
CON=C(C(=O)OC)c1ccccc1CON=C(C)c1cccc(OC(F)=Cc2ccc(C)c(C)c2)c1 [Compound 67]	99%	100%	100%	10%	100%	0%	37%	100%	100%	100%	99%	100%	100%								RSB (Fungicidal Activities, C.V.) (Rhizoctonia solani AG-1; concentration 10 ppm): 43%
OC(c1ccc(Cl)cc1)(c1cncnc1)c1ccccc1Cl (centres unmarked) [FENARIMOL, reference compound]														100%		40%			0%	80%	Fungicidal Activities BPM (C.V.) (Erysiphae graminis; 0.08 ppm): 50%; Fungicidal Activities BPM (C.V.) (Erysiphae graminis; 0.40 ppm): 95%; Fungicidal Activities BPM (C.V.) (Erysiphae graminis; 10 ppm): 100%; Fungicidal Activities RSB (C.V.) (Rhizoctonia solani AG-1; 0.08 ppm): 14%; Fungicidal Activities RSB (C.V.) (Rhizoctonia solani AG-1; 0.40 ppm): 30%; Fungicidal Activities RSB (C.V.) (Rhizoctonia solani AG-1; 10 ppm): 85%; Fungicidal Activities TLB (C.V.) (Phytophthora infestans; 0.08 ppm): 0%; Fungicidal Activities TLB (C.V.) (Phytophthora infestans; 0.40 ppm): 60%; Fungicidal Activities TLB (C.V.) (Phytophthora infestans; 2 ppm): 75%; Fungicidal Activities TLB (C.V.) (Phytophthora infestans; 10 ppm): 80%; Fungicidal Activities CGM (C.V.) (Botrytis cinerae; 0.08 ppm): 0%; Fungicidal Activities CGM (C.V.) (Botrytis cinerae; 0.40 ppm): 7%; Fungicidal Activities CGM (C.V.) (Botrytis cinerae; 2 ppm): 7%; Fungicidal Activities CGM (C.V.) (Botrytis cinerae; 10 ppm): 7%; Fungicidal Activities RCV (C.V.) ([1]; 0.08 ppm): 0%; Fungicidal Activities RCV (C.V.) ([1]; 0.40 ppm): 0%; Fungicidal Activities RCV (C.V.) ([1]; 10 ppm): 0%; Fungicidal Activities WLR (C.V.) (Puccinia recondita; 0.08 ppm): 15%; Fungicidal Activities WLR (C.V.) (Puccinia recondita; 0.40 ppm): 15%; Fungicidal Activities WLR (C.V.) (Puccinia recondita; 10 ppm): 100%
CNC(=O)C(=NOC)c1ccccc1CON=C(C)c1cccc(OC(F)=C(c2cccc(C(F)(F)F)c2)C(F)(F)F)c1 [Compound 200]														99%	100%	15%	85%	50%	95%	93%	Fungicidal Activities TLB (C.V.) (Phytophthora infestans; 2 ppm): 12%; Fungicidal Activities CGM (C.V.) (Botrytis cinerae; 50 ppm): 81%; Fungicidal Activities RCV (C.V.) ([1]; 50 ppm): 96%; Fungicidal Activities WLR (C.V.) (Puccinia recondita; 50 ppm): 100%

From US6552080B1, “Fungicidal compounds having a fluorovinyl-or fluoropropenyl-oxyphenyloxime moiety and process for the preparation thereof” (Korea Research Institute of Chemical Technology, priority 1999, dated 2003)
